This is an account of results in patent US20120277161A1, “INHIBITION OF MULTIPLE CELL ACTIVATION PATHWAYS” (INTER-K PTY LIMITED, priority 2009, published 2012).

Format in all cases: biochemical
For one experiment, the target named is human Lyn (Homo sapiens, UniProt P07948). Kind of experiment: Lyn kinase activity assay. The note with it: 20 μM. The method, then: In a final reaction volume of 25 μl, human Lyn is incubated with the RSKAKNPLYR peptide (SEQ ID No: 6) in 50 mM Tris buffer pH 7.5, 0.1 mM EGTA, 0.1 mM Na3VO4, 1% mercaptoethanol, 0.1 mg/ml poly(Glu,Tyr) 4:1, 10 mM Mg acetate and [γ-33P-ATP] (specific activity approx. 500 cpm/pmol). The reaction was initiated by the addition of the MgATP mix, incubated for 40 minutes at room temperature prior to being stopped and kinase activity assessed by scintillation counting as per the protocol described for c-Src described in Example 1.1.
Sequence of human Lyn (P07948 whole entry): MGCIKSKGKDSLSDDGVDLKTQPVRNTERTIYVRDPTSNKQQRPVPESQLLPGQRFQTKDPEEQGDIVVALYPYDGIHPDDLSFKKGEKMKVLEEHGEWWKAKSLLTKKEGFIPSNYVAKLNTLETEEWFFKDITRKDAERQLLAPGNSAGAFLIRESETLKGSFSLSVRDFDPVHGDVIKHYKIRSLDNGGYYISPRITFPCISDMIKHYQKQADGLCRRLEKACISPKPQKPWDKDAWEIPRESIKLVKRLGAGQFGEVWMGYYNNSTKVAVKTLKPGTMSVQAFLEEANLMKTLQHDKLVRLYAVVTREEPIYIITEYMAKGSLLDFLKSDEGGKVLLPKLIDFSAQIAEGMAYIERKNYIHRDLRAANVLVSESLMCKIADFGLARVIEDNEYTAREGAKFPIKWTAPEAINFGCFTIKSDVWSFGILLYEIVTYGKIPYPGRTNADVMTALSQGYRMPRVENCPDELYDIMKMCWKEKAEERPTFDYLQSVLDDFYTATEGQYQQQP

In a further experiment the target is PI3K P110δ (Homo sapiens, UniProt O00329). As to the kind of experiment: PI3K HTRF activity assay.
Sequence of PI3K P110δ (O00329 whole entry): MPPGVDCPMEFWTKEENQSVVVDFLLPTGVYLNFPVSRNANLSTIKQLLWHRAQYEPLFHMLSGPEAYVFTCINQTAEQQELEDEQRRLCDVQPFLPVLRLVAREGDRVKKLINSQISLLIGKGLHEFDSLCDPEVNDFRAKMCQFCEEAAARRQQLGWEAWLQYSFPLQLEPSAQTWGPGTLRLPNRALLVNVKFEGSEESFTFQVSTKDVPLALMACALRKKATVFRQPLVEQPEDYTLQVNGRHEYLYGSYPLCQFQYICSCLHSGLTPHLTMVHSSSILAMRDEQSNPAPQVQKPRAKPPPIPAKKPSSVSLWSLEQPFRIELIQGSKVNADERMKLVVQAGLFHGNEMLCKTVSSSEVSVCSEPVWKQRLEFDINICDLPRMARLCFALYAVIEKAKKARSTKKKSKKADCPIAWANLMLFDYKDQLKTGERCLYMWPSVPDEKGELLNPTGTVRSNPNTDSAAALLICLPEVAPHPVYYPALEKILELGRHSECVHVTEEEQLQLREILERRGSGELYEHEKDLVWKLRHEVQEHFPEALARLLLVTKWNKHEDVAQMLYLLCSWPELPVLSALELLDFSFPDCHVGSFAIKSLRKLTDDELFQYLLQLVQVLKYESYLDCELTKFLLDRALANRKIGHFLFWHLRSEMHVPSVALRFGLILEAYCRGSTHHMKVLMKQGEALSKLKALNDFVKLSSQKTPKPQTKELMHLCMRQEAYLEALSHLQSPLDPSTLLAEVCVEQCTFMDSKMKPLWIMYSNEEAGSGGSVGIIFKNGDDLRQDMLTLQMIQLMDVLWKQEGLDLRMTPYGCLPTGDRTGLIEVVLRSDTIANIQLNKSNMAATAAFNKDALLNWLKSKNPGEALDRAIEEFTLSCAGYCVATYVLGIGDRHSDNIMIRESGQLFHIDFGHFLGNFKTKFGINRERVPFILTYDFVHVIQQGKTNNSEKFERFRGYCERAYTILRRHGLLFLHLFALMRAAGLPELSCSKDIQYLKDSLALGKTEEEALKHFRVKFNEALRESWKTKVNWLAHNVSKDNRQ
Sequence of PI3K P110δ (P27986 whole entry partner): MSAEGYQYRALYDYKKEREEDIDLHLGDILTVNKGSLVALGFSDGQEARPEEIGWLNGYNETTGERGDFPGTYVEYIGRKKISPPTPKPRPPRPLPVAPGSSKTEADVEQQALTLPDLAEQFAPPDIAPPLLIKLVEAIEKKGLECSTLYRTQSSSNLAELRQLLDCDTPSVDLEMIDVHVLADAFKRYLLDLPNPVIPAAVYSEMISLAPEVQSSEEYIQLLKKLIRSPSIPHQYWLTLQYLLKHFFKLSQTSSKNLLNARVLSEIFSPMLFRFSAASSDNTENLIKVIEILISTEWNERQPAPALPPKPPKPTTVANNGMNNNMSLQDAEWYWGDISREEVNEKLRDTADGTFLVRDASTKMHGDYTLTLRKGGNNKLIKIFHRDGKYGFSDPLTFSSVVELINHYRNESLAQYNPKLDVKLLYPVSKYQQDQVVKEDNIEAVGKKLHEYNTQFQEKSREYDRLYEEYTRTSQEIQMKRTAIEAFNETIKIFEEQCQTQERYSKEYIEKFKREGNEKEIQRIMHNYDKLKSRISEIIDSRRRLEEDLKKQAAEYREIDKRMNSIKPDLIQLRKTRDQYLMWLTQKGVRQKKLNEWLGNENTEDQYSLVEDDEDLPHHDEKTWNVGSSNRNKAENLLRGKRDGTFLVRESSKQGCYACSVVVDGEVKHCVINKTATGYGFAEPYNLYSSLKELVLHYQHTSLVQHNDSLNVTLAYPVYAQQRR
In the next experiment the target is PKC alpha (Homo sapiens, UniProt P17252). As to the kind of experiment: PKC kinase activity assay. The method, then:
(§1) In a final reaction volume of […] PKC kinase (h) (5-10 mU) is incubated with 20 mM HEPES pH 7.4, 0.03% Triton X-100, […], 0.1 mg/mL phosphatidylserine, 10 μg/mL diacylglycerol, 0.1 mg/mL histone H1 or 50 μM of the peptide ERMRPRKRQGSVRRRV (SEQ ID No. 20), 10 mM MgAcetate and [γ-33P-ATP] (specific activity approx. 500 cpm/pmol, concentration as required). The reaction is initiated by the addition of the MgATP mix. After incubation for 40 minutes at room temperature, the reaction is stopped by the addition of 5 μL of a 3% phosphoric acid solution. 10 μL of the reaction is then spotted onto a P30 filtermat and washed three times for 5 minutes in 75 mM phosphoric acid and once in methanol prior to drying and scintillation counting.

The next experiment has as its target PKC beta I (Homo sapiens, UniProt P05771). Kind of experiment: PKC kinase activity assay. As for the experimental part:
as §1

The target of a further experiment is PKC beta II (Homo sapiens, UniProt P05771). As to the kind of experiment: PKC kinase activity assay. As for the experimental part: as §1
Sequence of PKC beta II (P05771 1-673 isoform P05771-2): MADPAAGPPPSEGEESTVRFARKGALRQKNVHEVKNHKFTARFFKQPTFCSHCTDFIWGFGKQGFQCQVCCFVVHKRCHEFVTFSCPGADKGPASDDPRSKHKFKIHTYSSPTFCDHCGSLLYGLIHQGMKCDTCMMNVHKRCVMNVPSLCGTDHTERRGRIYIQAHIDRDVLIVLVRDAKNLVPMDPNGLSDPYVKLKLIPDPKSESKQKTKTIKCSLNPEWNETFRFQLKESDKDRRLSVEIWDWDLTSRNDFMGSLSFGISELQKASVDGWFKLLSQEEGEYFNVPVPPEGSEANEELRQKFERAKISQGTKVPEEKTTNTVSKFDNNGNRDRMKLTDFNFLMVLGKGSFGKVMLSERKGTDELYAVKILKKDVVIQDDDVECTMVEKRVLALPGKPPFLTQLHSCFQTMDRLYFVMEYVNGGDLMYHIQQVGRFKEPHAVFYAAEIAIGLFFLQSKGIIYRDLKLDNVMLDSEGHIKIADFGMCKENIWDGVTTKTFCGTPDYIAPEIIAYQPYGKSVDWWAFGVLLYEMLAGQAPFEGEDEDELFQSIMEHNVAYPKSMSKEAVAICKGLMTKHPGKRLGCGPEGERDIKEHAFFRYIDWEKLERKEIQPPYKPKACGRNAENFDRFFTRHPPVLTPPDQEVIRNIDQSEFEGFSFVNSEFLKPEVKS
For the next experiment, the system named is JNK. As to the kind of experiment: JNK activity. The note with it: 20 μM, data not shown.

Sequence of PKC beta I (P05771 whole entry): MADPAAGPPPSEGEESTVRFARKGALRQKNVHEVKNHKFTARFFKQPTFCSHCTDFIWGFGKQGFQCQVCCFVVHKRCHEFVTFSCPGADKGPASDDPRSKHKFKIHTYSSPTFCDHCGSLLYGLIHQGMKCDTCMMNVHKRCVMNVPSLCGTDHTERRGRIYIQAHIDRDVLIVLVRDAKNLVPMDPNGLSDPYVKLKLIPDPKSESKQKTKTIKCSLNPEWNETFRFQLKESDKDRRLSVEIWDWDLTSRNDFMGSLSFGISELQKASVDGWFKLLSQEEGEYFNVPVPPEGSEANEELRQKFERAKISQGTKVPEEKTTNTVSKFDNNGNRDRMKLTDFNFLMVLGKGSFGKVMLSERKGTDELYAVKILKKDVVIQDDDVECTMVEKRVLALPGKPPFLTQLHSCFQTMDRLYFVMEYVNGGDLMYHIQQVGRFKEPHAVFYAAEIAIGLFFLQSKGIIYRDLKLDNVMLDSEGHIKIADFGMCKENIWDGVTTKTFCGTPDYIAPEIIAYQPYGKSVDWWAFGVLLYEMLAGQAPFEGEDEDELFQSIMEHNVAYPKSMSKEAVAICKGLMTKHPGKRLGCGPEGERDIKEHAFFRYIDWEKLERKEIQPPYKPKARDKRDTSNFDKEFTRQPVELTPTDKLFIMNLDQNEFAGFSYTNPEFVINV

For “Dend 10-10(4) whose RSKAKNPLYR peptides are entirely D-amino acids and pegylated with two ethylene glycol units [Dend 10-10(4)DP]”, the “inhibition of the activity of c-Lyn relative to controls” value against human Lyn was 96%. The “Percentage (%) kinase inhibition PI3K P110δ” value on PI3K P110δ (dendrimer conc. 1 μM) was found to be 39%; at PI3K P110δ (dendrimer conc. 2 μM), 56%; on PI3K P110δ (dendrimer conc. 250 nm) it was 9%; on PI3K P110δ (dendrimer conc. 500 nm), 25%. The “% Kinase inhibition PKC alpha” value on PKC alpha (20 μM, relative to control) is recorded as 98%. Besides, the “Percentage (%) kinase inhibition PKC alpha” value is recorded as 83% at PKC alpha (dendrimer conc. 1 μM), 98% at PKC alpha (dendrimer conc. 2 μM), 23% on PKC alpha (dendrimer conc. 250 nm) and 45% at PKC alpha (dendrimer conc. 500 nm). Also, the “% Kinase inhibition PKC beta I” value at PKC beta I (20 μM, relative to control) was 98%. Besides, the “Percentage (%) kinase inhibition PKC beta I” value at PKC beta I (dendrimer conc. 1 μM) was 80%; on PKC beta I (dendrimer conc. 2 μM) it was 96%; on PKC beta I (dendrimer conc. 250 nm), 19%; at PKC beta I (dendrimer conc. 500 nm), 35%. Moreover, the “% Kinase inhibition PKC beta II” value on PKC beta II (20 μM, relative to control) amounted to 83%. For the same substance, the “Percentage (%) kinase inhibition PKC beta II” value is recorded as 82% at PKC beta II (dendrimer conc. 1 μM), 95% on PKC beta II (dendrimer conc. 2 μM), 22% at PKC beta II (dendrimer conc. 250 nm) and 44% on PKC beta II (dendrimer conc. 500 nm). The “effect on activity of JNK” value with JNK is listed as “without any effect”.
